Measurements: PubChem BioAssay (NCI)
In brackets after ≈: the same amount, converted by molar mass.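 Following 48 hours of exposure in 96-well plates, responses at five concentrations were used to interpolate endpoints linearly. GI50 is the concentration that inhibits growth by half. TGI denotes the concentration required for complete inhibition of growth.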

Assays:
Test in all cases: NCI-60 cell line screen, 48 h
[1] = tested on: DLD-1 colon
[2] = tested on: DMS 114 small cell lung
[3] = tested on: DMS 273 small cell lung
[4] = tested on: HOP-18 NSCLC
[5] = tested on: KM20L2 colon
[6] = tested on: RXF-631 renal
[7] = tested on: SNB-78 CNS
[8] = tested on: XF 498 CNS
[9] = tested on: MDA-N

Structure (SMILES) | TGI [1] [µM] | TGI [2] [µM] | TGI [3] [µM] | TGI [4] [µM] | TGI [5] [µM] | TGI [6] [µM] | TGI [7] [µM] | TGI [8] [µM] | TGI [9] | GI50 [1] [µM] | GI50 [2] [µM] | GI50 [3] [µM] | GI50 [5] [µM] | GI50 [7] [µM] | GI50 [9] [µg/mL]
CN(C)/C=N/c1nc2c(ncn2C2OC(CO)C(O)C2O)c(=O)[nH]1 (configuration not stated) | > 100 | > 100 | > 100 | > 100 | > 100 | > 100 | > 100 | > 100 |  |  |  |  |  |  | 
COc1ccc2c3c([nH]c2c1[N+](=O)[O-])C(C)=NCC3 | > 100 | > 100 | > 100 |  | > 100 | > 100 | > 100 |  |  |  |  |  |  |  | 
Cn1c2c(c3ccccc31)C1CCCCCCC1C1C(=O)OC(=O)C21 (configuration not stated) | > 100 | 75.2 | 42.7 | > 100 |  | > 100 | > 100 | 93.1 |  |  |  |  |  |  | 
CC1=NNC(=O)C2CCC(=O)N12 (configuration not stated) | > 100 | > 100 | > 100 | > 100 | > 100 | > 100 | > 100 |  |  |  |  |  |  |  | 
COC(=O)c1cc2c(s1)C(=O)c1ccccc1-2 | > 100 | > 100 | > 100 | > 100 | > 100 | > 100 | > 100 |  |  |  |  |  |  |  | 
O=[N+]([O-])c1ccc(C2=Nn3cnnc3SC2)o1 | 41.4 | 28.8 | 36.3 |  |  | 28.1 | 51.9 | 30.2 |  |  |  |  |  |  | 
O=C(CCn1[nH]c(=O)c(Cl)c(Cl)c1=O)NO | > 100 | > 100 | > 100 | > 100 | > 100 |  |  | > 100 |  |  |  |  |  |  | 
[N-]=[N+]=NC12CC3C4CC5CC3C(C1)C(C5)C4C2 | > 100 | > 100 | > 100 | > 100 |  | > 100 | > 100 | > 100 |  |  |  |  |  |  | 
CC(C)(C)CC(C)(C)c1cc2c(O)c(c1)Cc1cc(C(C)(C)CC(C)(C)C)cc(c1O)Cc1cc(C(C)(C)CC(C)(C)C)cc(c1O)Cc1cc(C(C)(C)CC(C)(C)C)cc(c1O)C2 | > 100 | > 100 | > 100 |  | > 100 | > 100 | > 100 | > 100 |  |  |  |  |  |  | 
CN(C)c1ccc(C(C=C2c3ccccc3Sc3ccccc32)=C(C#N)C#N)cc1 | > 100 | > 100 | > 100 | > 100 | > 100 | > 100 | > 100 | > 100 |  |  |  |  |  |  | 
CS(=O)(=O)Nc1ccc2c(c1)oc(=O)c1ccccc12 |  |  |  |  |  |  |  |  | > 100 µM |  |  |  |  |  | 
COc1ccc(C(=O)C(c2ccc(OC)cc2)C2(O)C(=O)Nc3ccc([N+](=O)[O-])cc32)cc1 (configuration not stated) | > 100 | > 100 | > 100 |  | > 100 |  | > 100 |  |  |  |  |  |  |  | 
CCOc1ccccc1C=C1c2ccccc2C(=O)c2ccccc21 | > 100 | 15.9 | 15.7 |  |  |  | > 100 |  |  |  |  |  |  |  | 
CC(C)c1ccccc1NC(=O)CCc1n[nH]c(=S)o1 | > 89.2 | > 100 | > 90.7 | > 100 | > 100 | > 100 | > 100 | > 100 |  |  |  |  |  |  | 
COc1cc(C#CC(=O)OC/C=C/c2ccc3c(c2)OCO3)cc(OC)c1OC |  |  |  |  |  |  |  |  | 45 µM |  |  |  |  |  | 
N#Cc1nc(Nc2cccc3ccccc23)sc1N | > 100 |  | > 100 |  | > 100 |  | 75.6 | > 100 |  |  |  |  |  |  | 
NC(=O)NC1C(c2ccccc2)=C1c1ccccc1 |  |  |  |  |  |  |  |  | 34.4 µM |  |  |  |  |  | 
CC(C)N(C(=O)C12C3C4C5(C#N)C3C1(C#N)C5C42I)C(C)C (configuration not stated) | > 60.9 | > 64.5 | > 60.9 | > 100 | > 100 | > 100 | > 100 | > 100 |  |  |  |  |  |  | 
O=C(/C=C/c1ccccc1O)c1ccccc1O | > 100 | > 100 | > 100 |  | > 100 |  | > 100 |  |  |  |  |  |  |  | 
CC(CCC=O)CCOCc1ccccc1 (configuration not stated) | > 100 | > 100 | > 100 | > 100 | > 100 |  | > 100 | > 100 | > 100 µM |  |  |  |  |  | 
CC(=O)c1cccc(NC(=O)C(=O)NNc2n[nH]c(=S)n2N)c1 | 31.6 | 3.93 | 18.7 | 24.2 | 46.1 | 10.9 | 35 | 25.7 | 3.8 µM |  |  |  |  |  | 
COc1cc(C(Cc2ccccc2)NC(C)=O)oc(=O)c1 (configuration not stated) | > 100 | > 100 | > 100 |  | > 100 |  |  | > 100 |  |  |  |  |  |  | 

Structure (SMILES) | TGI [1] [µM] | TGI [2] [µM] | TGI [3] [µM] | TGI [4] [µM] | TGI [5] [µM] | TGI [6] [µM] | TGI [7] [µM] | TGI [8] [µM] | TGI [9] | GI50 [1] [µM] | GI50 [2] [µM] | GI50 [3] [µM] | GI50 [5] [µM] | GI50 [7] [µM] | GI50 [9] [µg/mL]
S=C1NC2(CCCCCC2)NN1c1ccccc1 | > 100 | > 100 |  | > 100 |  | > 100 |  |  | > 100 µM |  |  |  |  |  | 
CCC[CH2][Sn]1([CH2]CCC)[O]N=C(c2ccccc2)C(c2ccccc2)[O]1 (configuration not stated) | 3.58 | 2.18 | 3.05 |  | 8.74 |  | 8.01 |  |  | 1.79 | 0.965 | 1.59 | 2.54 | 3.07 | 
CCCN=C(N)NC#N | > 100 | 35.8 | > 100 | > 100 | > 100 |  | > 100 |  |  |  |  |  |  |  | 
COc1cccc(/C=C/c2cc(OC)c(OC)c(OC)c2)c1 | > 100 | > 100 | > 100 |  | 87.7 | > 100 | > 100 | > 100 |  |  |  |  |  |  | 
Cc1cc(CC(O)c2ccc(Cl)c(Cl)c2)nc(=O)[nH]1 (configuration not stated) | > 100 | 26.8 |  |  | > 100 |  | > 100 | 41.3 |  |  |  |  |  |  | 
C=C1C(=O)OC2CCN3CC=C(COC(=O)C(C)(O)C4(CO4)C1C)C23 (configuration not stated) |  |  |  |  |  |  |  |  | > 100 µM |  |  |  |  |  | 
C=COCCCOc1ccccc1 | > 100 | > 100 | > 100 | > 100 | > 100 |  |  | > 100 |  |  |  |  |  |  | 
O=S1(=O)C[C@H](O)[C@H](O)CS1 | > 100 | > 100 | > 100 | > 100 | > 100 |  | > 100 | > 100 |  |  |  |  |  |  | 
NNC(=S)N/N=C(\CC1OC(=O)c2ccccc21)c1ccccc1O (configuration not stated) | > 100 | > 100 | > 100 | > 100 | > 100 | > 100 | > 100 | > 100 |  |  |  |  |  |  | 
CNC(=O)N(C)N=NCCCl | > 100 | > 100 | > 100 |  | > 100 |  |  |  | > 100 µM |  |  |  |  |  | 
COc1ccc2c(c1)CCCC(Br)C2=O (configuration not stated) |  |  |  |  |  |  |  |  | 9.21 µM |  |  |  |  |  | 
CN(C)N=Nc1ccc(NC=O)cc1 |  |  |  |  |  |  |  |  | > 100 µM |  |  |  |  |  | 
COC(=O)C1=C(O)c2cc(OC)c(OC)cc2C(c2ccc(OC)c(OC)c2)C1 (configuration not stated) | > 100 | > 100 | > 100 | > 100 | > 100 | > 100 | > 100 | > 100 |  |  |  |  |  |  | 
COC1(OC)CC2C(=O)N(Cc3ccccc3)C1C(S(=O)(=O)c1ccccc1)C2S(=O)(=O)c1ccccc1 (configuration not stated) | 13.3 | 16 | 27.7 | 31 | 31.4 | 32.6 | 39.1 |  |  |  |  |  |  |  | 
C=C(c1nc2ccc(Cl)cc2[nH]c1=O)C(O)c1ccc(C(O)C(=O)c2nc3ccc(Cl)cc3[nH]c2=O)cc1 (configuration not stated) | > 100 | > 100 | > 100 |  | > 100 | > 100 | > 100 | > 100 | > 100 µM |  |  |  |  |  | 
O=C(O)CCC(=O)c1ccc[nH]1 |  |  |  |  |  |  |  |  | > 100 µM |  |  |  |  |  | 
CCCCC(C(=O)C(=O)NC1C2CC3CC(C2)CC1C3)C(=O)C(C)C (configuration not stated) |  | > 100 | > 100 | > 100 | > 100 | > 100 | > 100 | > 100 |  |  |  |  |  |  | 
NC(=Nc1c([N+](=O)[O-])cnc2ccccc12)N1CCOCC1 |  |  |  |  |  |  |  |  | > 100 µM |  |  |  |  |  | 
Cc1nn(-c2ccccc2)c2nc(N3CCOCC3)nnc12 | > 100 | > 100 | > 100 |  | > 100 | > 100 | > 100 | > 100 |  |  |  |  |  |  | 
COc1cc(N(CCC#N)CCC#N)ccc1/C(N=Nc1ccc([N+](=O)[O-])cc1)=N/NC(=O)c1cc(Br)ccc1O |  |  |  |  |  |  |  |  | 126 µg/mL |  |  |  |  |  | 43.8 (≈ 70.7 µM)
CN(C)c1nc2ccccc2[nH]1 | > 100 | > 100 | > 100 | > 100 | > 100 |  |  |  |  |  |  |  |  |  | 
